Values quoted from earlier work as cited in PMC5488687 (The Biochemical journal, 2016).
Where two headings read alike, the source gives them in different places.

What was measured:
[1] = test system: normal human dermal fibroblasts (NHDF); settings: read-out: IC50, cell viability of NHDF cells
[2] = test system: neuroblastoma N1E-115 cells; settings: read-out: IC50, cell viability of N1E-115 cells
[3] = test system: normal human dermal fibroblasts (NHDF)
[4] = test system: neuroblastoma N1E-115 cells
[5] = test system: cells with amplified centrosomes

IC50 [2] [µM]	IC50 (KIFC1; read-out: IC50, KIFC1 ATPase activity) [µM]	IC50 (KIFC1; read-out: IC50, MT-stimulated KIFC1 ATPase activity) [µM]	Compound	IC50 [1] [µM]	effect on bipolar spindle formation in NHDF [3]	multipolar spindle formation in N1E-115 cells [4]	binding to KIFC1/MT complex versus KIFC1 or MT alone (KIFC1/MT complex)	multipolar spindle formation and mitotic catastrophe [5]
86	75		O=C(O)c1cc(I)ccc1NC(=O)[C@H](Cc1ccccc1)NCc1ccccc1 [CW069]	187	no effects	increased multipolar spindle formation		
		0.3	CCCc1cc(C(=O)N[C@H](Cc2ccc(-c3cccc(OC(F)(F)F)c3)nc2)C(=O)N[C@@H]2CCNC2)sc1C [AZ82]				bound specifically to KIFC1/MT complex but did not interact directly with KIFC1 or MT	triggered multipolar spindle formation and mitotic catastrophe
